Results reported in patent US7906498B2, “Cholesterol as an antibiotic for Streptococcus pneumoniae” (priority 2005, dated 2011).

Experiments:
[1] = test system: S. pneumoniae strains Avery's, R6, and TIGR4; assay: In vitro incubation of log-phase S. pneumoniae with cholesterol (optical density, plating); type: cell-based, Streptococcus pneumoniae; conditions: 3 hours
Method: To determine if cholesterol is bactericidal, log-phase S. pneumoniae were incubated with cholesterol. Three S. pneumoniae strains, Avery's, R6, and TIGR4, were diluted from overnight cultures and grown to log phase (A600=0.3). These bacteria were then incubated with 1% cholesterol in 20% glycerol, 20% glycerol alone, or PBS. The optical density of each strain was determined once per hour for 3 hours, and bacterial loads were determined by plating dilutions of the bacteria onto chocolate agar. […] While cholesterol prevented growth in vitro (outside the cornea), cholesterol had no effect on bacterial growth in the cornea. (See above). Topical application of cholesterol could be used to decrease the numbers of S. pneumoniae on the outside surface of the cornea, and inhibit bacterial infiltration of the corneal surface.

[2] = test system: encapsulated S. pneumoniae; assay: Bacterial load in infected rabbit corneas; type: in vivo, Streptococcus pneumoniae; conditions: topical application
Method: Sacrifice of the rabbits occurred immediately following the last SLE time (48 hours post-infection) to avoid unnecessary pain. Corneas were harvested for bacterial quantification or for histopathologic analysis. […] Bacterial loads were determined for control corneas (treated with 20% glycerol only) and corneas treated with the topical cholesterol (1% in 20% glycerol). The bacterial load in the control corneas ranged from 2.48 to 6.60 log colony-forming units, while in the treated corneas the load was 3.68 to 6.59 log colony-forming units.

[3] = Test whether cholesterol independently causes inflammation in rabbit corneas (topical drops or intrastromal injection); type: in vivo; conditions: one cornea, examined up to 48 hours post-injection
Method: The applications were 30 minutes apart for the first hour, and the remaining applications were 1 hour apart. The corneas were examined periodically for several days. […] The possible effect of cholesterol injected into the corneal stroma was also examined. […] The corneas were examined every 2 hours for the first 8 hours, and then at 24, 30, and 48 hours post-injection.

[4] = test system: Staphylococcus aureus; assay: Rabbit Staphylococcus aureus keratitis treated with cholesterol; type: in vivo; conditions: cholesterol 1% in 20% glycerol
[5] = test system: encapsulated S. pneumoniae; assay: Rabbit S. pneumoniae keratitis, slit lamp examination (SLE) score; conditions: topical 1% cholesterol in 20% glycerol, 20 and 24 hours post-infection
[6] = biological target: alpha-toxin (Staphylococcus aureus, UniProt P09616); conditions: in vivo
Sequence of alpha-toxin (P09616 27-319 limits assumed): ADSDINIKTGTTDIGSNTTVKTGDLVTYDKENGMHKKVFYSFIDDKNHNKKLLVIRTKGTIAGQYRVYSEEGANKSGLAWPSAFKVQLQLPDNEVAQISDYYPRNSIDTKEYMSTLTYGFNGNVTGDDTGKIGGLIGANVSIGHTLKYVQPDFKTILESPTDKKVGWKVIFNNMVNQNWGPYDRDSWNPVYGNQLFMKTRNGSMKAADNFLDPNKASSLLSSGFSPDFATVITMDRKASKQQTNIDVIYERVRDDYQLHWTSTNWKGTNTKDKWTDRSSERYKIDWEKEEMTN

CC(C)CCC[C@@H](C)[C@H]1CC[C@H]2[C@@H]3CC=C4C[C@@H](O)CC[C@]4(C)[C@H]3CC[C@]12C [cholesterol]
effect on bacterial growth in vitro ([1]; strain Avery's, 1% cholesterol in 20% glycerol): prevented the growth
effect on bacterial growth in vitro ([1]; strain R6, 1% cholesterol in 20% glycerol): prevented the growth
bactericidal effect on bacteria once inside the cornea [2]: does not have a bactericidal effect
inflammation or adverse effect after injection into corneal stroma ([3]; […]): No inflammation or adverse effect was observed
inflammation or adverse effect after injection into corneal stroma ([3]; injection of 0.5% cholesterol in 10% glycerol): No inflammation or adverse effect was observed
inhibition of damaging effects in S. aureus-infected corneas [4]: ineffective
corneal severity (SLE), treated versus untreated corneas [5]: essentially the same
reduction of pathology associated with alpha-toxin [6]: ineffective
